This is an account of results in paper PMC8968952, “Modulation of ERCC1-XPF Heterodimerization Inhibition via Structural Modification of Small Molecule Inhibitor Side-Chains” (Frontiers in Oncology, 2022).

Molecules are shown by their SMILES.

The subject of data set [1] is HCT-116 cells. More on the design: method as in PMID 31369707. Conditions: 1 μM compound, 50 μM cyclophosphamide; cited from earlier work.
Data set [2] has as its system HCT-116 cells. More on the design: method as in PMID 31369707. As to conditions: 1.0 μM compound, 4 J/m^2 UVC; cited from earlier work.
On the set-up of data set [3]: method as in PMID 31369707. As to conditions: cited from earlier work.
A further data set has as its target CYP2C19 (Homo sapiens, UniProt P33261). More on the design: method as in PMID 31369707. Conditions: read-out: Inhibition of cytochrome P450 (IC50) CYP2C19; cited from earlier work.
The next data set concerns the target CYP2C9 (Homo sapiens, UniProt P11712). More on the design: method as in PMID 31369707. As to conditions: read-out: Inhibition of cytochrome P450 (IC50) CYP2C9; cited from earlier work.
The next data set has as its target CYP2D6 (Homo sapiens, UniProt P10635). More on the design: method as in PMID 31369707. Conditions: read-out: Inhibition of cytochrome P450 (IC50) CYP2D6; cited from earlier work.
The subject of data set [4] is ERCC1 or XPF levels in A549 cells. Description: Western blot of ERCC1 and XPF protein levels (PLA control). In kind it is cell-based, human. Conditions: 2 µM, 24 h. Here is the method: page 1: Supplementary Material […] Supplementary Figure 1. ERCC1-XPF mediated cleavage of the stem-loop DNA substrate, in which the FAM signal is quenched, releases the fluorescently tagged octanucleotide. Triplicate measurements of the control (DMSO) and the effect of 10 μM of compounds 4 and 6 on the incision activity is shown. 2 PLA Control Experiments Supplementary Figure 2. A549 cells were seeded in 6-well culture dishes (Thermo Fishes Scientific) at a density of 0.3 X 10^6 cells/well in a final volume of 3 ml. […] The chambers were incubated for 24 h and then washed with PBS and the cells were solubilized with RIPA buffer in the presence of protease inhibitor cocktail (Cell Signaling Technology) plus 2 mM EDTA. […] EpiGentek), XPF (LS- C173159, 1:1000; LifeSpan BioSciences, Seattle, WA) and B-Actin (sc-47778, 1:1000; Santa Cruz) primary antibodies followed by secondary anti-mouse or anti-rabbit secondary HRP-conjugated secondary antibodies. ECL chemiluminescent substrate (Promega) was used to detect the proteins. 3 Cytotoxicity Analysis Supplementary Figure 3. Cytotoxicity assay using colony forming assay 4 HCT-116 Derived XPF Knockout Cells For CRISPR deletion of XPF from HCT-116 cells, the pSpCas9(BB)-2A-GFP (pX458) vector (Addgene plasmid # 48138) was used. The short guide sequence to target XPF exon one was: 5'- [NT] 3' and target XPF exon eight was: 5'- [NT]3'. […]
A general note: A western blot detects proteins with antibodies after separation by electrophoresis.

Details of data set [5]: method as in PMID 31369707. Conditions: cited from earlier work. This is another data set of the same source.
Data set [6] has as its system HCT-116 cells. More on the design: method as in PMID 31369707. As to conditions: 2 μM, after 24 hours; cited from earlier work.
Data set [7] concerns the target T1, ERCC1-XPF heterodimer in A549 cells (Homo sapiens, UniProt Q92889).
T1 construct: endogenous in cells; host or cells: A549
T1 sequence (Q92889 1-916): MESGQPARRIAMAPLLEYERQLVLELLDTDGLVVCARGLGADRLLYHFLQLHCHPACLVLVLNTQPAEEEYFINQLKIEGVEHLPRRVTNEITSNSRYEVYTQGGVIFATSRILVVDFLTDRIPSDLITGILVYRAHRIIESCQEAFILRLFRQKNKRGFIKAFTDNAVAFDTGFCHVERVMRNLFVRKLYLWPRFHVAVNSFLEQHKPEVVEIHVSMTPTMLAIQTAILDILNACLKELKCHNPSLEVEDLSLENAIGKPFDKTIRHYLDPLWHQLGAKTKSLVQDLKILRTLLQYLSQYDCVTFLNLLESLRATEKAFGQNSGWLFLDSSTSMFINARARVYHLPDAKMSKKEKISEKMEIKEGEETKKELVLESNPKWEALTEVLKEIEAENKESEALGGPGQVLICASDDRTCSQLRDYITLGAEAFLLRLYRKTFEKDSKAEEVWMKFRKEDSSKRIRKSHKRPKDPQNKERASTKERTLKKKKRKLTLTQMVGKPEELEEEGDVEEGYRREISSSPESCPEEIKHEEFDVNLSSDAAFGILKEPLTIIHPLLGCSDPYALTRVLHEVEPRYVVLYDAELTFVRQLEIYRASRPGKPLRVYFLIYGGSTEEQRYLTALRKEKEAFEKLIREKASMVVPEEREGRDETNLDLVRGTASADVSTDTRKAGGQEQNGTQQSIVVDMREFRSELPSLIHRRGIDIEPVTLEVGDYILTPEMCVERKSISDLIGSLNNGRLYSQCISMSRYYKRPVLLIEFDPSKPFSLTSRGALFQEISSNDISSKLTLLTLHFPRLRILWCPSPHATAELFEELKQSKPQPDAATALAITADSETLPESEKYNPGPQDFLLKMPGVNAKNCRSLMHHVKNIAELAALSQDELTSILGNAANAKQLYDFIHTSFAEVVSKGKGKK
More on the design: method as in PMID 33399940. As to conditions: A549 cells treated with 20 μM cisplatin and 1 μM inhibitor; cited from earlier work.

The target of the next data set is CYP3A4-M (Homo sapiens, UniProt P08684). More on the design: method as in PMID 31369707. Conditions: read-out: Inhibition of cytochrome P450 (IC50) CYP3A4-M; cited from earlier work.
Sequence of CYP3A4-M (P08684 whole entry): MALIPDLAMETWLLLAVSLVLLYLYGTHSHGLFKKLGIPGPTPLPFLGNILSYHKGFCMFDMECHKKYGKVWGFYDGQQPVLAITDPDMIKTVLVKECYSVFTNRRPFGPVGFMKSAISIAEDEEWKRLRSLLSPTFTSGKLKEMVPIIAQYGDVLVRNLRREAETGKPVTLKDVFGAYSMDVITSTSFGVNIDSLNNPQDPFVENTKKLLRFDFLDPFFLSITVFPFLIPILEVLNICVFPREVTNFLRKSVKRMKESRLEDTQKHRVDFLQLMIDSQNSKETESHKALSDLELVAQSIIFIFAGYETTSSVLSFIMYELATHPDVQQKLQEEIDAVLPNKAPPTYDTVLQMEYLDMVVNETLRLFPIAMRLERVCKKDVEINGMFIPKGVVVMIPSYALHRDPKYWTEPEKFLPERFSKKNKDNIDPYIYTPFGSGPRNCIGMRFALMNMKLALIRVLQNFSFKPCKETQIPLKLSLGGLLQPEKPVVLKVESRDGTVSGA

Sequence of CYP2C9 (P11712 whole entry): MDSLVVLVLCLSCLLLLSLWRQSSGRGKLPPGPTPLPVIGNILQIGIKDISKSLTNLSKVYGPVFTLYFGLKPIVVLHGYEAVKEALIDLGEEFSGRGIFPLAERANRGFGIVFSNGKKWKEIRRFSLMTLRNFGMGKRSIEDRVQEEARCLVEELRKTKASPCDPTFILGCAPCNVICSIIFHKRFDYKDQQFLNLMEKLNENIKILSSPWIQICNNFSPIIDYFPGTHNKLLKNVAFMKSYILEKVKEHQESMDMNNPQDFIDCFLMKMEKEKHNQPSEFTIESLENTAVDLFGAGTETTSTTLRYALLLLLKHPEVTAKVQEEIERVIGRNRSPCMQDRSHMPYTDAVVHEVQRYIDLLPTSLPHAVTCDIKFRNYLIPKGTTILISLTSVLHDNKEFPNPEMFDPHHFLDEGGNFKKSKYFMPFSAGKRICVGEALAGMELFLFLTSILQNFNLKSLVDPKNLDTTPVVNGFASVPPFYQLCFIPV
Sequence of CYP2C19 (P33261 whole entry): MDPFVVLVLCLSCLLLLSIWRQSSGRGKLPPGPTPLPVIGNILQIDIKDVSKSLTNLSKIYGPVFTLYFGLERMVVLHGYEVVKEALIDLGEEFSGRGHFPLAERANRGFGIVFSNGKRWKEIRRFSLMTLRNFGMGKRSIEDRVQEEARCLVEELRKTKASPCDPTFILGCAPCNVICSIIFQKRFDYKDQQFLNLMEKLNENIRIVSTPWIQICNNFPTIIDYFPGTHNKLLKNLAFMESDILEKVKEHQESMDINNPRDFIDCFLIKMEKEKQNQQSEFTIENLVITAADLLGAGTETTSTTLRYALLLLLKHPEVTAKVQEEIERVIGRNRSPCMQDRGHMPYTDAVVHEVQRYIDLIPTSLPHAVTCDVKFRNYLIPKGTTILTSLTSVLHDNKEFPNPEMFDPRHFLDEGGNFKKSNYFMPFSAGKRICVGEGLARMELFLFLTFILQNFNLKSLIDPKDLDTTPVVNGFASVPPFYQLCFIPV
Sequence of CYP2D6 (P10635 whole entry): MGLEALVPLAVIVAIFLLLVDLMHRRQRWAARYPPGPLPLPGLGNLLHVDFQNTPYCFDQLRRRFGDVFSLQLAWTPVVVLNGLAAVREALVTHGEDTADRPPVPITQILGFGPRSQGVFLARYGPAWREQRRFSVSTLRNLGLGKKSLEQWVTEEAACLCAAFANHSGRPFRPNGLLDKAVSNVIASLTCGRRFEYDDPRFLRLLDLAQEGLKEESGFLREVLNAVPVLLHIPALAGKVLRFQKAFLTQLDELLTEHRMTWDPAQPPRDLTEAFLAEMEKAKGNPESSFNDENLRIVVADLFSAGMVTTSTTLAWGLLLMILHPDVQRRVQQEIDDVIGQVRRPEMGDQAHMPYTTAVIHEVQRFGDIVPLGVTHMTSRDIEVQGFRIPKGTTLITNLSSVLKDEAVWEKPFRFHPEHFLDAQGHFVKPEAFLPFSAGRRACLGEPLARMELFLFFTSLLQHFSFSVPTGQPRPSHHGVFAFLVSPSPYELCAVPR

For orientation: IC50 means the point on the concentration scale where inhibition reaches its midpoint. Regarding `COc1ccc2nc3cc(Cl)ccc3c(Nc3ccc(O)c(CN4CCN(CCN(C)C)CC4)c3)c2c1` [Compound 4], the “cell survival with cyclophosphamide” value with HCT-116 cells [1] is reported as “about 75%”. Also, the “cell survival after UVC” value in the data set on HCT-116 cells [2] is ~ 50%. Also, in [3], the “Metabolic stability in cryopreserved human hepatocytes (clearance)” value is recorded as 48.8 mL/min/kg. For the same molecule, the “Metabolic stability in cryopreserved human hepatocytes T1/2” value in [3] is 1.32 h. For the same molecule, the IC50 on CYP2C19 is over 50 µM; on CYP2C9 it was over 50 µM; at CYP2D6, 16 µM; at CYP3A4-M, 37.1 µM. Further, the “levels of ERCC1 or XPF vs untreated cells” value in [4] is recorded as “no significant differences”. In data set [5], the “Metabolic stability in human liver microsomes (clearance)” value was 44.0 (mL/min/kg). For the same molecule, the CPD removal in the data set on HCT-116 cells [6] is on record as 60%. Moreover, the “PLA: inhibition of the interaction between ERCC1 and XPF (in words)” value in data set [7] was “clear inhibition of the interaction between ERCC1 and XPF”.
